From ChEMBL document CHEMBL5137080, “Discovery of Novel 7-Hydroxy-5-oxo-4,5-dihydrothieno[3,2-b]pyridine-6-carboxamide Derivatives with Potent and Selective Antifungal Activity against Cryptococcus Species” (J Med Chem, 2022)
≈ marks a conversion by molar mass, not a printed value.

What was measured:
Cryptococcus neoformans [1] = test: Antifungal activity against Cryptococcus neoformans clinical isolate HN17 assessed as fungal growth inhibition incubated for 72 hrs by broth microdilution method; type: functional
Cryptococcus neoformans [2] = test: Antifungal activity against Cryptococcus neoformans clinical isolate HN1 assessed as fungal growth inhibition incubated for 72 hrs in presence of Fluconazole by broth microdilution method; type: functional
Cryptococcus neoformans [3] = test: Antifungal activity against Cryptococcus neoformans clinical isolate HN20 assessed as fungal growth inhibition incubated for 72 hrs by broth microdilution method; type: functional
Nakaseomyces glabratus = test: Antifungal activity against Candida glabrata ATCC1182 assessed as fungal growth inhibition incubated for 48 hrs by broth microdilution method; type: functional
Aspergillus fumigatus = test: Antifungal activity against Aspergillus fumigatus 7544 assessed as fungal growth inhibition incubated for 48 hrs by broth microdilution method; type: functional
Cryptococcus neoformans [4] = test: Antifungal activity against Cryptococcus neoformans clinical isolate 56992 assessed as fungal growth inhibition incubated for 72 hrs by broth microdilution method; type: functional
Candida tropicalis = test: Antifungal activity against Candida tropicalis ATCC20026 assessed as fungal growth inhibition incubated for 48 hrs by broth microdilution method; type: functional
Cryptococcus neoformans [5] = test: Antifungal activity against Cryptococcus neoformans clinical isolate 445 assessed as fungal growth inhibition incubated for 72 hrs by broth microdilution method; type: functional
Cryptococcus neoformans [6] = test: Antifungal activity against Cryptococcus neoformans H99 infected in Wax moth larvae assessed as median survival time at 10 mg/kg measured after 9 days by Kaplan-Meier method; type: functional; settings: time 9 day
Cryptococcus neoformans [7] = test: Antifungal activity against Cryptococcus neoformans clinical isolate HN2 assessed as fungal growth inhibition incubated for 72 hrs by broth microdilution method; type: functional
[8] = Cytotoxicity against human Caco-2 cells assessed as cell viability at 256 ug/ml incubated for 24 hrs by CCK-8 assay; type: toxicity, cell-based; settings: at 256 µg/mL, read-out: Activity
[9] = Cytotoxicity against human HUVEC cells assessed as inhibition on cell growth incubated for 24 hrs by CCK-8 assay; type: toxicity, cell-based
[10] = system: Cryptococcus deuterogattii; test: Antifungal activity against Cryptococcus gattii WM178 infected in Wax moth larvae assessed as median survival time at 10 mg/kg measured after 9 days by Kaplan-Meier method; type: functional, Cryptococcus gattii species complex; settings: time 9 day
[11] = system: Cryptococcus gattii species complex; test: Antifungal activity against Cryptococcus gattii E566 assessed as fungal growth inhibition incubated for 72 hrs by broth microdilution method; type: functional
Cryptococcus neoformans [12] = test: Antifungal activity against Cryptococcus neoformans clinical isolate 444 assessed as fungal growth inhibition incubated for 72 hrs by broth microdilution method; type: functional
Cryptococcus gattii = test: Antifungal activity against Cryptococcus gattii WM179 assessed as fungal growth inhibition incubated for 72 hrs by broth microdilution method; type: functional, Cryptococcus gattii species complex
Cryptococcus neoformans [13] = test: Antifungal activity against Cryptococcus neoformans clinical isolate HN15 assessed as fungal growth inhibition incubated for 72 hrs in presence of Fluconazole by broth microdilution method; type: functional
Cryptococcus neoformans [14] = test: Antifungal activity against Cryptococcus neoformans clinical isolate HN2-40 assessed as fungal growth inhibition incubated for 72 hrs by broth microdilution method; type: functional
Candida albicans = test: Antifungal activity against Candida albicans SC5314 assessed as fungal growth inhibition incubated for 48 hrs by broth microdilution method; type: functional
Cryptococcus neoformans [15] = test: Antifungal activity against Cryptococcus neoformans H99 assessed as reduction on fungal growth at 2 ug/ml incubated for 48 hrs by plate reader assay; type: functional; parameters: scale not given: the % may be the effect or the level left; settings: dose 2 µg/ml
Cryptococcus neoformans [16] = test: Antifungal activity against Cryptococcus neoformans clinical isolate SH68 assessed as fungal growth inhibition incubated for 72 hrs by broth microdilution method; type: functional
[17] = system: Cryptococcus deuterogattii; test: Antifungal activity against Cryptococcus gattii WM178 assessed as fungal growth inhibition incubated for 72 hrs by broth microdilution method; type: functional, Cryptococcus gattii species complex
[18] = Hemolytic activity in rabbit RBC at 16 ug/ml incubated for 1 hr by spectrophotometry; type: toxicity, cell-based, Oryctolagus cuniculus, Erythrocyte; settings: red blood cells, at 16 µg/mL, read-out: Activity
Cryptococcus neoformans [19] = test: Antifungal activity against Cryptococcus neoformans H99 assessed as fungal growth inhibition incubated for 72 hrs by broth microdilution method; type: functional
[20] = system: Cryptococcus deuterogattii; test: Antifungal activity against Cryptococcus gattii WM178 infected in Wax moth larvae assessed as survival rate at 10 mg/kg measured after 9 days by Kaplan-Meier method; type: functional, Cryptococcus gattii species complex; settings: WM178, 216 h, time 9 day
Cryptococcus neoformans [21] = test: Antifungal activity against Cryptococcus neoformans clinical isolate 445 assessed as fungal growth inhibition incubated for 72 hrs in presence of Fluconazole by broth microdilution method; type: functional
[22] = Hemolytic activity in rabbit RBC at 256 ug/ml incubated for 1 hr by spectrophotometry; type: toxicity, cell-based, Oryctolagus cuniculus, Erythrocyte; settings: red blood cells, at 256 µg/mL, read-out: Activity
[Candida] auris [23] = Antifungal activity against Candida auris CBS 12372 assessed as fungal growth inhibition incubated for 48 hrs by broth microdilution method; type: functional; settings: Candidozyma auris
[24] = Cytotoxicity against human HUVEC cells assessed as cell viability at 256 ug/ml incubated for 24 hrs by CCK-8 assay; type: toxicity, cell-based; settings: at 256 µg/mL, read-out: Activity
Cryptococcus neoformans [25] = test: Antifungal activity against Cryptococcus neoformans H99 infected in Wax moth larvae assessed as survival rate at 10 mg/kg measured after 9 days by Kaplan-Meier method; type: functional; settings: H99, 216 h, time 9 day
Cryptococcus neoformans [26] = test: Antifungal activity against Cryptococcus neoformans clinical isolate 443 assessed as fungal growth inhibition incubated for 72 hrs by broth microdilution method; type: functional
Pichia kudriavzevii = test: Antifungal activity against Candida krusei ATCC2340 assessed as fungal growth inhibition incubated for 48 hrs by broth microdilution method; type: functional
[27] = system: Cryptococcus gattii species complex; test: Antifungal activity against Cryptococcus gattii clinical isolate SCZ20031 assessed as fungal growth inhibition incubated for 72 hrs by broth microdilution method; type: functional
Cryptococcus neoformans [28] = test: Antifungal activity against Cryptococcus neoformans clinical isolate HN1 assessed as fungal growth inhibition incubated for 72 hrs by broth microdilution method; type: functional
[29] = system: Cryptococcus gattii species complex; test: Antifungal activity against Cryptococcus gattii clinical isolate SCZ20024 assessed as fungal growth inhibition incubated for 72 hrs by broth microdilution method; type: functional
Cryptococcus neoformans [30] = test: Antifungal activity against Cryptococcus neoformans clinical isolate BJ3 assessed as fungal growth inhibition incubated for 72 hrs by broth microdilution method; type: functional
Cryptococcus neoformans [31] = test: Antifungal activity against Cryptococcus neoformans clinical isolate HN15 assessed as fungal growth inhibition incubated for 72 hrs by broth microdilution method; type: functional
Cryptococcus neoformans [32] = test: Antifungal activity against Cryptococcus neoformans clinical isolate HN19 assessed as fungal growth inhibition incubated for 72 hrs by broth microdilution method; type: functional
Cryptococcus neoformans [33] = test: Antifungal activity against Cryptococcus neoformans H99 infected in Wax moth larvae assessed as reduction on fungal burden at 10 mg/kg measured after 9 days by 10 fold serial dilution method; type: functional; settings: time 9 day
Cryptococcus neoformans [34] = test: Antifungal activity against Cryptococcus neoformans clinical isolate 56992 assessed as fungal growth inhibition incubated for 72 hrs in presence of Fluconazole by broth microdilution method; type: functional
[35] = system: Cryptococcus gattii species complex; test: Antifungal activity against Cryptococcus gattii clinical isolate SCZ20031 assessed as fungal growth inhibition incubated for 72 hrs in presence of P163-0892 by broth microdilution method; type: functional
Cryptococcus neoformans [36] = test: Antifungal activity against Cryptococcus neoformans clinical isolate HN2-40 assessed as fungal growth inhibition incubated for 72 hrs in presence of P163-0892 by broth microdilution method; type: functional
Cryptococcus neoformans [37] = test: Synergistic antifungal activity against Cryptococcus neoformans clinical isolate 56992 assessed as fractional inhibitory concentration index incubated for 72 hrs in presence of P163-0892 by broth microdilution method; type: functional
[Candida] auris [38] = Synergistic antifungal activity against Candida auris CBS 12372 assessed as fractional inhibitory concentration index incubated for 48 hrs in presence of P163-0892 by broth microdilution method; type: functional, Candidozyma auris

Row | Compound | MIC (Cryptococcus neoformans [1]) [mg/L] | MIC (Cryptococcus neoformans [3]) [mg/L] | MIC (Nakaseomyces glabratus) [mg/L] | MIC (Aspergillus fumigatus) [mg/L] | MIC (Cryptococcus neoformans [4]) [mg/L] | MIC (Candida tropicalis) [mg/L] | MIC (Cryptococcus neoformans [5]) [mg/L] | MST (Cryptococcus neoformans [6]) [days] | MIC (Cryptococcus neoformans [7]) [mg/L] | viability at 24 h, 256 ug/ml [8] [%] | IC50 at 24 h [9] [mg/L] | MST [10] [days] | MIC [11] [mg/L] | MIC (Cryptococcus neoformans [12]) [mg/L] | MIC (Cryptococcus gattii) [mg/L] | MIC (Cryptococcus neoformans [14]) [mg/L] | MIC (Candida albicans) [mg/L] | MIC (Cryptococcus neoformans [16]) [mg/L] | MIC [17] [mg/L] | hemolysis at 1 h, 16 ug/ml [18] [%] | further results
1 | CCCCNC(=O)c1c(O)c2sccc2n(Cc2ccccc2)c1=O | 1 (≈ 2.81 µM) | 0.25 (≈ 0.701 µM) | > 64 | > 64 | 1 (≈ 2.81 µM) | > 64 | 2 (≈ 5.61 µM) | 2.5 | 0.5 (≈ 1.4 µM) | 104 | > 64 | 3 | 0.5 (≈ 1.4 µM) | 0.5 (≈ 1.4 µM) | 0.5 (≈ 1.4 µM) | 0.5 (≈ 1.4 µM) | > 64 | 0.5 (≈ 1.4 µM) | 0.5 (≈ 1.4 µM) | 2.32 | MIC (Cryptococcus neoformans [2]): 0.0313 mg/L; MIC (Cryptococcus neoformans [13]): 0.0625 mg/L; Activity (Cryptococcus neoformans [15]): 46.8%; MIC (Cryptococcus neoformans [19]): 0.25 mg/L (≈ 0.701 µM); survival at 10 mg/kg [20]: 35%; MIC (Cryptococcus neoformans [21]): 0.125 mg/L; hemolysis at 1 h, 256 ug/ml [22]: 2.47%; MIC ([Candida] auris [23]): > 64 mg/L; viability at 24 h, 256 ug/ml [24]: 107%; survival at 10 mg/kg (Cryptococcus neoformans [25]): 30%; MIC (Cryptococcus neoformans [26]): 1 mg/L (≈ 2.81 µM); MIC (Pichia kudriavzevii): > 64 mg/L; MIC [27]: 1 mg/L (≈ 2.81 µM); MIC (Cryptococcus neoformans [28]): 0.5 mg/L (≈ 1.4 µM); MIC [29]: 1 mg/L (≈ 2.81 µM); MIC (Cryptococcus neoformans [30]): 0.5 mg/L (≈ 1.4 µM); MIC (Cryptococcus neoformans [31]): 1 mg/L (≈ 2.81 µM); MIC (Cryptococcus neoformans [32]): 1 mg/L (≈ 2.81 µM); Activity (Cryptococcus neoformans [33]): 5.7 log10CFU/g; MIC (Cryptococcus neoformans [34]): 0.125 mg/L
2 | OC(Cn1cncn1)(Cn1cncn1)c1ccc(F)cc1F [FLUCONAZOLE] | 4 (≈ 13.1 µM) | 0.5 (≈ 1.63 µM) | > 64 | > 64 | 2 (≈ 6.53 µM) | 2 (≈ 6.53 µM) | 8 (≈ 26.1 µM) | 2.5 | 2 (≈ 6.53 µM) | 95.3 | > 64 | 3 | 4 (≈ 13.1 µM) | 4 (≈ 13.1 µM) | 4 (≈ 13.1 µM) | 1 (≈ 3.27 µM) | 0.5 (≈ 1.63 µM) | 8 (≈ 26.1 µM) | 4 (≈ 13.1 µM) | 2.65 | MIC [35]: 1 mg/L; MIC (Cryptococcus neoformans [19]): 16 mg/L (≈ 52.2 µM); survival at 10 mg/kg [20]: 40%; MIC (Cryptococcus neoformans [36]): 0.125 mg/L; hemolysis at 1 h, 256 ug/ml [22]: 2.67%; MIC ([Candida] auris [23]): 1 mg/L (≈ 3.27 µM); viability at 24 h, 256 ug/ml [24]: 108%; survival at 10 mg/kg (Cryptococcus neoformans [25]): 35%; MIC (Cryptococcus neoformans [26]): 8 mg/L (≈ 26.1 µM); fractional inhibitory concentration index (FICI) (Cryptococcus neoformans [37]): 0.25; MIC (Pichia kudriavzevii): 8 mg/L (≈ 26.1 µM); MIC [27]: 8 mg/L (≈ 26.1 µM); MIC (Cryptococcus neoformans [28]): 2 mg/L (≈ 6.53 µM); MIC [29]: 4 mg/L (≈ 13.1 µM); MIC (Cryptococcus neoformans [30]): 2 mg/L (≈ 6.53 µM); MIC (Cryptococcus neoformans [31]): 4 mg/L (≈ 13.1 µM); MIC (Cryptococcus neoformans [32]): 4 mg/L (≈ 13.1 µM); Activity (Cryptococcus neoformans [33]): 5.3 log10CFU/g; fractional inhibitory concentration index (FICI) ([Candida] auris [38]): 1.008
